Source: ChEMBL document CHEMBL1201862, “PubChem BioAssay data set” (2004)
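These data come from cells grown in 96-well plates and exposed to compound for 48 hours at five concentrations. Here, GI50 denotes the concentration required for 50% inhibition of growth.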 Active and inactive are the calls of the source. Cut-off read from the data, not from the text of the source: active = GI50 up to about 1.1 µM and inactive = higher.

Assays:
Assay in all cases: growth of human tumour cells (NCI), 48 h
[1] = system: SK-MEL-28
[2] = system: CAKI-1
[3] = system: Malme-3M
[4] = system: RXF 393
[5] = system: KM12
[6] = system: HT-29
[7] = system: SK-OV-3
[8] = system: U-251
[9] = system: UO-31
[10] = system: SK-MEL-5
[11] = system: HOP-62
[12] = system: ACHN
[13] = system: OVCAR-3
[14] = system: A549
[15] = system: NCI-H226
[16] = system: K562
[17] = system: DMS-114
[18] = system: RPMI-8226
[19] = system: DMS-273
[20] = system: SNB-75
[21] = system: HL-60
[22] = system: CCRF-CEM
[23] = system: HOP-92
[24] = system: XF498
[25] = system: SNB-19
[26] = system: SW-620
[27] = system: OVCAR-8
[28] = system: UACC-257
[29] = system: 786-0
[30] = system: KM-20L2
[31] = system: HCT-116
[32] = system: SNB-78
[33] = system: IGROV-1
[34] = system: SR
[35] = system: M14
[36] = system: SF-295
[37] = system: HOP-18
[38] = system: HCT-15
[39] = system: HCC 2998
[40] = system: SF-539
[41] = system: DLD-1
[42] = system: NCI-H460
[43] = system: M19-MEL
[44] = system: SF-268
[45] = system: EKVX
[46] = system: COLO 205
[47] = system: TK-10
[48] = system: OVCAR-4
[49] = system: MOLT-4
[50] = system: OVCAR-5
[51] = system: LXFL 529
[52] = system: A498
[53] = system: SK-MEL-2
[54] = system: LOX IMVI
[55] = system: UACC-62
[56] = system: SN12C
[57] = system: NCI-H23
[58] = system: NCI-H522
[59] = system: RXF 631

Q: Which results are given for C=Cc1cncc(C#N)c1CCc1c(C#N)cncc1C=C?
A: GI50 [1]: > 10 µM (inactive); GI50 [2]: 63.2 µM (inactive); GI50 [3]: > 10 µM (inactive); GI50 [4]: 56.5 µM (inactive); GI50 [5]: > 10 µM (inactive); GI50 [6]: > 10 µM (inactive); GI50 [7]: > 10 µM (inactive); GI50 [8]: > 10 µM (inactive); GI50 [9]: > 10 µM (inactive); GI50 [10]: > 10 µM (inactive); GI50 [11]: > 10 µM (inactive); GI50 [12]: > 10 µM (inactive); GI50 [13]: > 10 µM (inactive); GI50 [14]: > 10 µM (inactive); GI50 [15]: > 10 µM (inactive); GI50 [16]: > 10 µM (inactive); GI50 [17]: > 10 µM (inactive); GI50 [18]: > 10 µM (inactive); GI50 [19]: > 10 µM (inactive); GI50 [20]: > 10 µM (inactive); GI50 [21]: > 10 µM (inactive); GI50 [22]: > 10 µM (inactive); GI50 [23]: > 10 µM (inactive); GI50 [24]: > 10 µM (inactive); GI50 [25]: > 10 µM (inactive); GI50 [26]: > 10 µM (inactive); GI50 [27]: > 10 µM (inactive); GI50 [28]: > 10 µM (inactive); GI50 [29]: > 10 µM (inactive); GI50 [30]: > 10 µM (inactive); GI50 [31]: > 10 µM (inactive); GI50 [32]: > 10 µM (inactive); GI50 [33]: > 10 µM (inactive); GI50 [34]: > 10 µM (inactive); GI50 [35]: > 10 µM (inactive); GI50 [36]: > 10 µM (inactive); GI50 [37]: > 10 µM (inactive); GI50 [38]: > 10 µM; GI50 [39]: > 10 µM (inactive); GI50 [40]: > 10 µM (inactive); GI50 [41]: > 10 µM (inactive); GI50 [42]: > 10 µM (inactive); GI50 [43]: > 10 µM (inactive); GI50 [44]: > 10 µM (inactive); GI50 [45]: 49 µM (inactive); GI50 [46]: > 10 µM (inactive); GI50 [47]: > 10 µM (inactive); GI50 [48]: > 10 µM (inactive); GI50 [49]: > 10 µM (inactive); GI50 [50]: > 10 µM (inactive); GI50 [51]: > 10 µM (inactive); GI50 [52]: > 10 µM (inactive); GI50 [53]: > 10 µM (inactive); GI50 [54]: > 100 µM (inactive); GI50 [55]: > 10 µM (inactive); GI50 [56]: > 10 µM (inactive); GI50 [57]: > 10 µM (inactive); GI50 [58]: > 10 µM (inactive)

Q: How did the GI50 [1] turn out when COc1ccc(C(=O)O)c2c(=O)c3cccnc3[nH]c12 was run?
A: > 100 µM (inactive)

Q: What about the GI50 [4] of the same molecule?
A: > 100 µM (inactive)

Q: What about the GI50 [5] of the same molecule?
A: > 100 µM (inactive)

Q: And the GI50 [6]?
A: > 100 µM (inactive)

Q: What about the GI50 [7] of the same molecule?
A: > 100 µM (inactive)

Q: And the GI50 [8]?
A: > 100 µM (inactive)

Q: What about the GI50 [9] of the same molecule?
A: > 100 µM (inactive)

Q: And the GI50 [11]?
A: > 100 µM (inactive)

Q: And the GI50 [12]?
A: > 100 µM (inactive)

Q: What about the GI50 [14] of the same molecule?
A: > 100 µM (inactive)

Q: And the GI50 [17]?
A: > 100 µM (inactive)

Q: What about the GI50 [21] of the same molecule?
A: > 100 µM (inactive)

Q: What about the GI50 [22] of the same molecule?
A: > 100 µM (inactive)

Q: And the GI50 [23]?
A: > 100 µM (inactive)

Q: What about the GI50 [25] of the same molecule?
A: > 100 µM (inactive)

Q: What about the GI50 [27] of the same molecule?
A: > 100 µM (inactive)

Q: What about the GI50 [28] of the same molecule?
A: > 100 µM (inactive)

Q: And the GI50 [30]?
A: > 100 µM (inactive)

Q: What about the GI50 [31] of the same molecule?
A: > 100 µM (inactive)

Q: What about the GI50 [32] of the same molecule?
A: > 100 µM (inactive)

Q: What about the GI50 [33] of the same molecule?
A: > 100 µM (inactive)

Q: What about the GI50 [34] of the same molecule?
A: > 100 µM (inactive)

Q: What about the GI50 [35] of the same molecule?
A: > 100 µM (inactive)

Q: What about the GI50 [36] of the same molecule?
A: > 100 µM (inactive)

Q: What about the GI50 [59] of the same molecule?
A: > 100 µM (inactive)

Q: And the GI50 [42]?
A: > 100 µM (inactive)

Q: What about the GI50 [43] of the same molecule?
A: > 100 µM (inactive)

Q: And the GI50 [45]?
A: > 100 µM (inactive)

Q: And the GI50 [47]?
A: > 100 µM (inactive)

Q: What about the GI50 [49] of the same molecule?
A: > 100 µM (inactive)

Q: And the GI50 [50]?
A: > 100 µM (inactive)

Q: And the GI50 [52]?
A: > 100 µM (inactive)

Q: What about the GI50 [55] of the same molecule?
A: 46.1 µM (inactive)

Q: What about the GI50 [57] of the same molecule?
A: > 100 µM (inactive)

Q: What about the GI50 [58] of the same molecule?
A: > 100 µM (inactive)

Q: CCc1cccc(C(C)CC)c1NC(=O)CC1C(=O)Nc2ccccc2[S+]1[O-] (stereo not given) was tested. Which GI50 [1] did it give?
A: 26.1 µM (inactive)

Q: And the GI50 [2]?
A: 26.4 µM (inactive)

Q: And the GI50 [3]?
A: 37.2 µM (inactive)

Q: And the GI50 [4]?
A: 13.9 µM (inactive)

Q: And the GI50 [6]?
A: 23.1 µM (inactive)

Q: And the GI50 [8]?
A: 14.9 µM (inactive)

Q: And the GI50 [9]?
A: > 100 µM (inactive)

Q: And the GI50 [10]?
A: 27.2 µM (inactive)

Q: And the GI50 [12]?
A: 44.2 µM (inactive)

Q: And the GI50 [13]?
A: 50.7 µM (inactive)

Q: And the GI50 [14]?
A: 31.8 µM (inactive)

Q: What about the GI50 [15] of the same molecule?
A: > 100 µM (inactive)

Q: And the GI50 [16]?
A: 42.3 µM (inactive)

Q: What about the GI50 [17] of the same molecule?
A: 28.2 µM (inactive)

Q: And the GI50 [18]?
A: 31.3 µM (inactive)

Q: What about the GI50 [19] of the same molecule?
A: 34 µM (inactive)

Q: What about the GI50 [20] of the same molecule?
A: 22.4 µM (inactive)

Q: And the GI50 [21]?
A: 49.4 µM (inactive)

Q: And the GI50 [22]?
A: 24.8 µM (inactive)

Q: And the GI50 [23]?
A: 16.7 µM (inactive)

Q: And the GI50 [25]?
A: 28.5 µM (inactive)

Q: What about the GI50 [26] of the same molecule?
A: 39.5 µM (inactive)

Q: What about the GI50 [27] of the same molecule?
A: 95.7 µM (inactive)

Q: And the GI50 [28]?
A: > 100 µM (inactive)

Q: What about the GI50 [29] of the same molecule?
A: 37.4 µM (inactive)

Q: What about the GI50 [30] of the same molecule?
A: 61.2 µM (inactive)

Q: What about the GI50 [31] of the same molecule?
A: 31.3 µM (inactive)

Q: And the GI50 [32]?
A: 28.8 µM (inactive)

Q: What about the GI50 [33] of the same molecule?
A: 19.9 µM (inactive)

Q: What about the GI50 [34] of the same molecule?
A: 30 µM (inactive)

Q: What about the GI50 [35] of the same molecule?
A: 22 µM (inactive)

Q: What about the GI50 [36] of the same molecule?
A: > 100 µM (inactive)

Q: And the GI50 [38]?
A: 31 µM

Q: And the GI50 [39]?
A: > 100 µM (inactive)

Q: What about the GI50 [59] of the same molecule?
A: 36.1 µM (inactive)

Q: What about the GI50 [40] of the same molecule?
A: 23 µM (inactive)

Q: What about the GI50 [41] of the same molecule?
A: 32.8 µM (inactive)

Q: And the GI50 [42]?
A: 29.4 µM (inactive)

Q: And the GI50 [43]?
A: 32.8 µM (inactive)

Q: What about the GI50 [44] of the same molecule?
A: 40.9 µM (inactive)

Q: What about the GI50 [45] of the same molecule?
A: > 100 µM (inactive)

Q: And the GI50 [47]?
A: > 100 µM (inactive)

Q: And the GI50 [48]?
A: 18.3 µM (inactive)

Q: What about the GI50 [49] of the same molecule?
A: 14.9 µM (inactive)

Q: And the GI50 [50]?
A: 33.1 µM (inactive)

Q: And the GI50 [51]?
A: 31.4 µM (inactive)

Q: And the GI50 [52]?
A: 37.2 µM (inactive)

Q: What about the GI50 [53] of the same molecule?
A: 40.5 µM (inactive)

Q: What about the GI50 [54] of the same molecule?
A: 28.2 µM (inactive)

Q: And the GI50 [55]?
A: 10 µM (inactive)

Q: And the GI50 [56]?
A: 91.2 µM (inactive)

Q: And the GI50 [57]?
A: 58.2 µM (inactive)
